Assay results reported in patent US11788146B2, “Methods for therapeutics prescreening in bodily fluids” (BARCODE DIAGNOSTICS LTD., priority 2017, dated 2023).
Read-outs that look alike come from different tables or passages of the source.

Columns and labels:
[1] = tested on: triple negative breast cancer tumor; assay: Barcode analysis in live and dead tumor cells after injection of liposome mixes; format: in vivo, BALB/c female mice; conditions: 5%, 1% or 0.1% of ETD liposome mixes; 48 hours post injection; patent regards it as likely artifact
Description: FIGS. 1A-C: Detection of barcodes from liposome mixes with equal relative drug concentrations. Bar charts showing the potency of gemcitabine, cisplatin and doxorubicin against triple negative breast cancer tumors when the drugs are provided at (1A) 5%, (1B) 1%, and (1C) 0.1% of the effective therapeutic dose (ETD). Potency of the drugs was defined as the ratio of the amount of a barcode in dead cells to the amount of that barcode in live cells.
Each drug has its own specific effective therapeutic dose […], and in order to test efficacy it is reasonable that each liposome mix (a mix of all three types of liposomes to be injected together) should have the same relative amount of each drug. That is, in order to determine an ideal dose, batches of mixed liposomes were generated in which all three drugs were present in a concentration that was either 5%, 1% or 0.1% of the effective therapeutic dose. Table 2 provides the amounts (in ul) of each liposome batch that were added to the mix in order to provide each total dose.
Cell from a triple negative breast cancer tumor were transplanted to the fat pad of BALB/c female mice and allowed to grow to form tumors in the mice. The mice were separated into 3 groups and then each group was injected with the 5%, 1% or 0.1% liposome mixes. […]

4T1 cells [2] = conditions: cited from earlier work
4T1 cells [3] = conditions: cited from earlier work; remark: listed apart in the source

Row | Structure (SMILES) | Effectiveness relative to the other two drugs [1] | Potency (ratio of barcode in dead cells to barcode in live cells), ranking [1] | Effect on tumor growth (4T1 cells [2]; at later time points) | Effect on tumor growth (4T1 cells [2]; within the first couple of days of treatment) | Sensitivity of 4T1 cells (4T1 cells [3]) | Resistance of 4T1 cells (4T1 cells [3])
1 | Nc1ccn([C@@H]2O[C@H](CO)[C@@H](O)C2(F)F)c(=O)n1 [Gemcitabine] | > 10 fold | most effective treatment | not be effective | retards tumor growth | – | –
2 | N.N.[Cl][Pt][Cl] [cisplatin] | – | – | – | – | highly sensitive | –
3 | COc1cccc2c1C(=O)c1c(O)c3c(c(O)c1C2=O)C[C@@](O)(C(=O)CO)C[C@@H]3O[C@H]1C[C@H](N)[C@H](O)[C@H](C)O1 [doxorubicin] | – | – | – | – | less so | become resistant
